The text below walks through data of US11866518B2, “Bicyclic peptide ligands specific for TSLP” (BicycleTx Limited, priority 2020, dated 2024).

*1 amine or outer side, *2 acyl side, *3 side chain or, on linkers, in order; H or OH if unused. Where a SMILES comes first, the peptide text is derived from it. Bridges are numbered along the chain shown (N, C = ends). TATA = O=C(CC[*:1])N1CN(C(=O)CC[*:2])CN(C(=O)CC[*:3])C1

Chain of TSLP (Q969D9 29-159): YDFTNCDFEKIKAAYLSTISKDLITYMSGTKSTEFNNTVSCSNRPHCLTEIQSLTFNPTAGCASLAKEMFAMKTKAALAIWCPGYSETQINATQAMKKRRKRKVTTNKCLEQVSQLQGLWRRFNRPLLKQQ

The assay addresses TSLP (Homo sapiens, UniProt Q969D9). Put plainly: Human TSLP Surface Plasmon Resonance (SPR) binding assay. On the set-up: The resulting construct spCD33-6×HN-TEV-hTSLP(29-159)-Avi; 6xHN tag with TEV site (N, cleaved yes); made in house; host or cells: Expi293F cells. The note with it: biotinylated human TSLP immobilized on streptavidin chip; 20° C.; steady-state or kinetic 1:1 fit; read-out: hTSLP SPR Kd.
With `CC(C)C[C@@H]1NC(=O)[C@H](Cc2c[nH]c3ccccc23)NC(=O)[C@@H]2CSCCC(=O)N3CN(CN(C3)C(=O)CCSC[C@@H](C(=O)N[C@@H](C)C(N)=O)NC(=O)[C@@H]3CCCN3C1=O)C(=O)CCSC[C@H](NC(=O)[C@H](C)N)C(=O)N[C@@H](CC(=O)O)C(=O)N[C@@H](Cc1c[nH]c3ccccc13)C(=O)N[C@@H](CCC(N)=O)C(=O)N[C@@H](Cc1c[nH]c3ccccc13)C(=O)N[C@@H](CO)C(=O)N[C@@H](Cc1ccc(O)cc1)C(=O)N[C@@H](CC(=O)O)C(=O)N2` [Example 196, A-(SEQ ID NO: 141)-A] (H-ACDWQWSYDCWLPCA-NH2; linker 2-10-14 via TATA; N-terminus assumed), the equilibrium dissociation constant (Kd) is 6.1 µM.

In the case of `CC(C)C[C@@H]1NC(=O)[C@H](Cc2c[nH]c3ccccc23)NC(=O)[C@@H]2CSCCC(=O)N3CN(CN(C3)C(=O)CCSC[C@@H](C(=O)N[C@@H](C)C(N)=O)NC(=O)[C@@H]3CCCN3C1=O)C(=O)CCSC[C@H](NC(=O)[C@H](C)N)C(=O)N[C@@H](CC(=O)O)C(=O)N[C@@H](Cc1c[nH]c3ccccc13)C(=O)N[C@@H](C(C)C)C(=O)N[C@@H](Cc1c[nH]c3ccccc13)C(=O)N[C@@H](CCC(=O)O)C(=O)N[C@@H](Cc1ccc(O)cc1)C(=O)N[C@@H](CC(=O)O)C(=O)N2` [Example 197, A-(SEQ ID NO: 142)-A] (H-ACDWVWEYDCWLPCA-NH2; linker 2-10-14 via TATA; N-terminus and C-terminus assumed), the dissociation constant (Kd) came to 0.46 µM.

With `CC(C)C[C@@H]1NC(=O)[C@H](Cc2c[nH]c3ccccc23)NC(=O)[C@@H]2CSCCC(=O)N3CN(CN(C3)C(=O)CCSC[C@H](NC(=O)CNC(=O)[C@H](CC(=O)O)NC(=O)[C@H](C)N)C(=O)N[C@@H](CCC(=O)O)C(=O)N[C@@H](Cc3c[nH]c4ccccc34)C(=O)N[C@@H](CC(N)=O)C(=O)N[C@@H](Cc3c[nH]c4ccccc34)C(=O)N[C@@H](C)C(=O)N[C@@H](Cc3ccc(O)cc3)C(=O)N[C@@H](CC(=O)O)C(=O)N2)C(=O)CCSC[C@@H](C(=O)N[C@@H](C)C(N)=O)NC(=O)CNC1=O` [Example 201, ADG-(SEQ ID NO: 146)-A] (H-ADGCEWNWAYDCWLGCA-NH2; linker 4-12-16 via TATA; N-terminus and C-terminus assumed), the equilibrium dissociation constant (Kd) was 0.17 µM.

On to `CSCC[C@@H]1NC(=O)[C@H](Cc2c[nH]c3ccccc23)NC(=O)[C@H](CCCCN)NC(=O)[C@@H](NC(=O)[C@@H](NC(=O)[C@H](CCC(=O)O)NC(=O)[C@H](C)N)[C@@H](C)O)CSCCC(=O)N2CN3CN(C2)C(=O)CCSC[C@H](NC(=O)[C@H](CC(=O)O)NC(=O)[C@H](Cc2ccc(O)cc2)NC(=O)[C@H](CCC(=O)O)NC(=O)[C@H](Cc2c[nH]c4ccccc24)NC1=O)C(=O)N[C@@H](Cc1c[nH]c2ccccc12)C(=O)N[C@@H](CC(C)C)C(=O)N[C@@H](CO)C(=O)N[C@H](C(=O)N[C@@H](C)C(N)=O)CSCCC3=O` [Example 204, AET-(SEQ ID NO: 149)-A] (H-AETCKWMWEYDCWLSCA-NH2; linker 4-12-16 via TATA; N-terminus assumed), for which the Kd amounted to 0.1 µM.

As to `CC[C@H](C)[C@H](NC(=O)[C@@H]1CCCN1C(=O)[C@H](C)NC(=O)[C@@H]1CSCCC(=O)N2CN3CN(C2)C(=O)CCSC[C@H](NC(=O)[C@H](CC(=O)O)NC(=O)[C@H](Cc2ccc(O)cc2)NC(=O)[C@H]([C@@H](C)O)NC(=O)[C@H](Cc2c[nH]c4ccccc24)NC(=O)[C@H](CC(N)=O)NC(=O)[C@H](Cc2c[nH]c4ccccc24)NC(=O)[C@H](CC(=O)O)NC(=O)[C@@H](NC(=O)[C@H](C)N)CSCCC3=O)C(=O)N[C@@H](Cc2c[nH]c3ccccc23)C(=O)N[C@@H](CC(C)C)C(=O)N[C@@H](CC(=O)O)C(=O)N1)C(N)=O` [Example 206, A-(SEQ ID NO: 151)-API] (H-ACDWNWTYDCWLDCAPI-NH2; linker 2-10-14 via TATA; N-terminus and C-terminus assumed), the Kd amounted to 0.43 µM.

As to `CC(C)C[C@@H]1NC(=O)[C@H](Cc2c[nH]c3ccccc23)NC(=O)[C@@H]2CSCCC(=O)N3CN(CN(C3)C(=O)CCSC[C@@H](C(=O)N[C@@H](Cc3ccccc3)C(=O)N[C@@H](C)C(=O)N[C@@H](CCC(=O)O)C(N)=O)NC(=O)[C@@H]3CCCN3C1=O)C(=O)CCSC[C@H](NC(=O)[C@H](C)N)C(=O)N[C@@H](CC(=O)O)C(=O)N[C@@H](Cc1c[nH]c3ccccc13)C(=O)N[C@@H](CC(=O)O)C(=O)N[C@@H](Cc1c[nH]c3ccccc13)C(=O)N[C@@H](CC(=O)O)C(=O)N[C@@H](Cc1ccc(O)cc1)C(=O)N[C@@H](CC(=O)O)C(=O)N2` [Example 208, A-(SEQ ID NO: 153)-FAE] (H-ACDWDWDYDCWLPCFAE-NH2; linker 2-10-14 via TATA; N-terminus assumed), the Kd was determined as 0.34 µM.

In the case of `CC(C)C[C@@H]1NC(=O)[C@H](Cc2c[nH]c3ccccc23)NC(=O)[C@@H]2CSCCC(=O)N3CN(CN(C3)C(=O)CCSC[C@H](NC(=O)[C@H](CCC(=O)O)NC(=O)[C@H](Cc3c[nH]cn3)NC(=O)[C@H](Cc3c[nH]cn3)NC(=O)[C@H](CCC(N)=O)NC(=O)[C@H](CCC(=O)O)NC(=O)[C@@H](N)CC(=O)O)C(=O)N[C@@H](CC(=O)O)C(=O)N[C@@H](Cc3c[nH]c4ccccc34)C(=O)N[C@@H](Cc3c[nH]cn3)C(=O)N[C@@H](Cc3c[nH]c4ccccc34)C(=O)N[C@@H](CCC(=O)O)C(=O)N[C@@H](Cc3ccc(O)cc3)C(=O)N[C@@H](CC(=O)O)C(=O)N2)C(=O)CCSC[C@@H](C(=O)N[C@@H](C)C(N)=O)NC(=O)[C@H](CO)NC1=O` [Example 209, DEQHHE-(SEQ ID NO: 144)-A], the Kd stood at 0.91 µM.

Take `CC(C)C[C@@H]1NC(=O)[C@H](Cc2c[nH]c3ccccc23)NC(=O)[C@@H]2CSCCC(=O)N3CN(CN(C3)C(=O)CCSC[C@H](NC(=O)[C@@H]3CCCN3C(=O)[C@@H]3CCCN3C(=O)[C@H](CCC(=O)O)NC(=O)[C@@H](NC(=O)[C@@H]3CCCN3C(=O)[C@@H](N)CO)[C@@H](C)O)C(=O)N[C@@H](CC(=O)O)C(=O)N[C@@H](Cc3c[nH]c4ccccc34)C(=O)N[C@@H](Cc3c[nH]cn3)C(=O)N[C@@H](Cc3c[nH]c4ccccc34)C(=O)N[C@@H](CCC(=O)O)C(=O)N[C@@H](Cc3ccc(O)cc3)C(=O)N[C@@H](CC(=O)O)C(=O)N2)C(=O)CCSC[C@@H](C(N)=O)NC(=O)[C@H](CO)NC1=O` [Example 215, SPTEPP-(SEQ ID NO: 144)]: the Kd was 0.24 µM.

As for `CC(C)C[C@@H]1NC(=O)[C@H](Cc2c[nH]c3ccccc23)NC(=O)[C@@H]2CSCCC(=O)N3CN(CN(C3)C(=O)CCSC[C@H](NC(=O)[C@H](CCC(=O)O)NC(=O)[C@H](CO)NC(=O)[C@@H]3CCCN3C(=O)[C@H](CO)NC(=O)[C@H](CCCNC(=N)N)NC(=O)[C@@H](N)CC(N)=O)C(=O)N[C@@H](CC(=O)O)C(=O)N[C@@H](Cc3c[nH]c4ccccc34)C(=O)N[C@@H](Cc3c[nH]cn3)C(=O)N[C@@H](Cc3c[nH]c4ccccc34)C(=O)N[C@@H](CCC(=O)O)C(=O)N[C@@H](Cc3ccc(O)cc3)C(=O)N[C@@H](CC(=O)O)C(=O)N2)C(=O)CCSC[C@@H](C(N)=O)NC(=O)[C@H](CO)NC1=O` [Example 217, NRSPSE-(SEQ ID NO: 144)], the Kd was determined as 0.86 µM.

Regarding `CC(=O)N[C@H]1CSCCC(=O)N2CN3CN(C2)C(=O)CCSC[C@H](NC(=O)[C@H](CC(=O)O)NC(=O)[C@H](Cc2ccc(O)cc2)NC(=O)[C@H](CCC(=O)O)NC(=O)[C@H](Cc2c[nH]c4ccccc24)NC(=O)[C@H](Cc2c[nH]cn2)NC(=O)[C@H](Cc2c[nH]c4ccccc24)NC(=O)[C@H](CC(=O)O)NC1=O)C(=O)N[C@@H](Cc1c[nH]c2ccccc12)C(=O)N[C@@H](CC(C)C)C(=O)N[C@@H](CO)C(=O)N[C@H](C(N)=O)CSCCC3=O` [Example 218, Ac-(SEQ ID NO: 144)], the dissociation constant (Kd) is 2 µM.

For the compound `CC(C)C[C@@H]1NC(=O)[C@H](Cc2c[nH]c3ccccc23)NC(=O)[C@@H]2CSCCC(=O)N3CN(CN(C3)C(=O)CCSC[C@H](NC(=O)[C@H](CC(=O)O)NC(=O)[C@H](CC(N)=O)NC(=O)[C@H](C)N)C(=O)N[C@@H](C(C)C)C(=O)N[C@@H](Cc3c[nH]c4ccccc34)C(=O)N[C@@H](Cc3c[nH]cn3)C(=O)N[C@@H](Cc3c[nH]c4ccccc34)C(=O)N[C@@H](CCC(=O)O)C(=O)N[C@@H](Cc3ccc(O)cc3)C(=O)N[C@@H](CC(=O)O)C(=O)N2)C(=O)CCSC[C@@H](C(=O)N[C@@H](C)C(N)=O)NC(=O)[C@H](CC(=O)O)NC1=O` [Example 220, AND-(SEQ ID NO: 154)-A] (H-ANDCVWHWEYDCWLDCA-NH2; linker 4-12-16 via TATA; N-terminus and C-terminus assumed), the Kd stood at 0.34 µM.

Turning to `CSCC[C@H](NC(=O)[C@H](CC(=O)O)NC(=O)CNC(=O)[C@@H]1CSCCC(=O)N2CN3CN(C2)C(=O)CCSC[C@H](N)C(=O)N[C@@H](CC(=O)O)C(=O)N[C@@H](Cc2c[nH]c4ccccc24)C(=O)N[C@@H](Cc2c[nH]cn2)C(=O)N[C@@H](Cc2c[nH]c4ccccc24)C(=O)N[C@@H](CCC(=O)O)C(=O)N[C@@H](Cc2ccc(O)cc2)C(=O)N[C@@H](CC(=O)O)C(=O)N[C@@H](CSCCC3=O)C(=O)N[C@@H](Cc2c[nH]c3ccccc23)C(=O)N[C@@H](CC(C)C)C(=O)N[C@@H](CO)C(=O)N1)C(=O)N[C@@H](CO)C(=O)N[C@H](C(=O)N[C@@H](CO)C(N)=O)C(C)C` [Example 222, (SEQ ID NO: 144)-GDMSVS], the Kd was 0.45 µM.

As to `CSCC[C@H](NC(=O)[C@H](CCC(=O)O)NC(=O)[C@H](CC(N)=O)NC(=O)[C@H](CC(=O)O)NC(=O)[C@H](Cc1ccc(O)cc1)NC(=O)[C@@H]1CSCCC(=O)N2CN3CN(C2)C(=O)CCSC[C@H](N)C(=O)N[C@@H](CC(=O)O)C(=O)N[C@@H](Cc2c[nH]c4ccccc24)C(=O)N[C@@H](Cc2c[nH]cn2)C(=O)N[C@@H](Cc2c[nH]c4ccccc24)C(=O)N[C@@H](CCC(=O)O)C(=O)N[C@@H](Cc2ccc(O)cc2)C(=O)N[C@@H](CC(=O)O)C(=O)N[C@@H](CSCCC3=O)C(=O)N[C@@H](Cc2c[nH]c3ccccc23)C(=O)N[C@@H](CC(C)C)C(=O)N[C@@H](CO)C(=O)N1)C(=O)N[C@@H](CO)C(N)=O` [Example 223, (SEQ ID NO: 144)-YDNEMS], the Kd was 3 µM.

By Kd is commonly meant the concentration at which binding is half-saturated.
